Measurements published in article PMC8472378, “Desferrioxamine B-Mediated Pre-Clinical In Vivo Imaging of Infection by the Mold Fungus Aspergillus fumigatus” (Journal of Fungi, 2021).

Tests used:
Aspergillus flavus = system: Aspergillus flavus; set-up: method as in PMID 23818006; details: cited from earlier work
Mycobacterium smegmatis = system: Mycobacterium smegmatis; set-up: method as in PMID 23818006; details: cited from earlier work
Aspergillus terreus = system: Aspergillus terreus; set-up: method as in PMID 23818006; details: cited from earlier work
Staphylococcus aureus = details: cited from earlier work
Pseudomonas aeruginosa = details: cited from earlier work
Klebsiella pneumoniae = details: cited from earlier work
A. fumigatus = details: cited from earlier work
Rhizopus arrhizus = system: Rhizopus arrhizus; set-up: method as in PMID 23818006; details: cited from earlier work
Candida albicans = system: Candida albicans; set-up: method as in PMID 23818006; details: cited from earlier work
[1] = system: A. fumigatus strain Afs77; assay: Short-term siderophore uptake analysis; assay type: cell-based, Aspergillus fumigatus; details: for uptake efficacy compared to [68Ga]Ga-DFO-E: 45 min at 37 °C
Description: Short-term uptake of siderophore-complexed ^68Ga was analyzed as described previously. A. fumigatus strain Afs77 [25] was grown for 18 h at 37 °C in 100 mL Aspergillus minimal medium (AMM) according to Pontecorvo et. al. with 1% (w/v) glucose as the carbon source and 20 mM glutamine as the nitrogen source, using iron-free trace elements to induce iron limiting for the transcriptional activation of siderophore uptake. To generate iron-replete mycelia for the transcriptional downregulation of siderophore uptake, the growth medium contained an additional 0.03 mM FeSO4. For the analysis of the pH-dependent siderophore uptake, the pH of the fungal culture medium was adjusted with HCl (1 M) and NaOH (1 M) immediately before the uptake analyses. Uptake assays were performed with 180 µL of liquid A. fumigatus culture added to a prewetted 96-well MultiScreen Filter Plates HTS (1 μm glass fiber filter, Merck Millipore, Darmstadt, Germany). Then, 50 µL of radioactive labelled siderophores (~100 nM) were added to the culture and incubated for 45 min at 37 °C. After washing two times with ice-cold TRIS buffer, the dried filters were measured in a γ-counter.

[2] = set-up: method as in PMID 32734456; details: healthy mice; cited from earlier work
[3] = set-up: method as in PMID 32734456; details: cited from earlier work
Streptococcus agalactiae = system: Streptococcus agalactiae; set-up: method as in PMID 22172389, PMID 32734456; details: cited from earlier work
[4] = set-up: method as in PMID 32734456; details: cited from earlier work; remark: listed apart in the source
[5] = system: pulmonary A. fumigatus infection; assay: Ex vivo biodistribution in A. fumigatus-infected rats; set-up: species or system rat; details: 45 min p.i.; for radioactivity accumulation in non-infected organs (blood, spleen, pancreas, liver, heart and muscle) / route of excretion / uptake in the infected lungs as compared with radiolabeled DFO-B in the same rat: infected rats; for uptake in the infected lungs as compared with radiolabeled DFO-B in the same rat: co-injection
Description: (§1) A previously described rat model of pulmonary aspergillosis was used for the in vivo experiments. The introduction of A. fumigatus spores into animals, injection of radiolabeled siderophores and small animal imaging were carried out under 2% isoflurane anesthesia (FORANE, Abbott Laboratories, Abbott Park, IL, USA) to minimize animal suffering and prevent animal motion. Infection in the lung of immunodeficient rats was established by intratracheal inoculation of 100 μL of A. fumigatus spores (10^9 CFU/mL A. fumigatus ATCC 46645; American Type Culture Collection) using the TELE PACK VET X LED system equipped with a flexible endoscope (https://www.karlstorz.com/cps/rde/xbcr/karlstorz_assets/ASSETS/3386919.pdf, accessed on 20 August 2021; Karl Storz GmbH & Co. KG, Tuttlingen, Germany). Depending on the development of the infection, experimental animals underwent an ex vivo biodistribution study or PET/CT imaging, typically 2–4 days after inoculation.
A. fumigatus-infected rats were retro-orbitally (r.o.) injected with [^67Ga]- and [^68Ga]Ga-DFO-B and DFO-E. One infected rat (rat 1) was injected with [^68Ga]Ga-DFO-B and [^67Ga]Ga-DFO-E, while the second rat (rat 2) was […] with [^67Ga]Ga-DFO-B and [^68Ga]Ga-DFO-E (~0.5 MBq and ~0.5 µg of each DFO-B and DFO-E per rat). Rats were sacrificed by exsanguination 45 min post-injection (p.i.). Organs and tissues of interest (blood, spleen, pancreas, kidneys, liver, heart, muscle and lung) were removed and weighed. The amount of radioactivity in the samples was measured in a γ-counter (2480 Wizard-2; Perkin Elmer, Waltham, MA, USA). First, a short-lived ^68Ga was measured immediately after organ removal in the 511 ± 100 keV energy window, and ^67Ga was measured after 24 h in the 185 ± 100 keV energy window. The results are expressed as percentage of injected dose per gram of organ (%ID/g).

[6] = system: pulmonary A. fumigatus infection; assay: PET/CT imaging in rat model of pulmonary aspergillosis; assay type: in vivo, Lewis rats; details: A. fumigatus-infected rats, r.o. injection
Description: as §1
µPET/CT images were acquired with an Albira PET/SPECT/CT small animal imaging system (Bruker Biospin Corporation, Woodbridge, CT, USA). […] After reconstruction, acquired data were viewed, analyzed and processed using the appropriate software (PMOD software, PMOD Technologies Ltd., Zurich, Switzerland and VolView software, Kitware, Clifton Park, NY, USA).

Escherichia coli = system: Escherichia coli; set-up: method as in PMID 22172389, PMID 32734456; details: cited from earlier work
[7] = non-infected rats; cited from earlier work
[8] = system: A. fumigatus mutant strain (∆sidA/∆ftrA); assay: Siderophore utilization via growth promotion on solid minimal medium; assay type: cell-based, Aspergillus fumigatus; details: 0.1 µM iron-loaded siderophore, 48 h at 37 °C
Description: Growth assays were performed on solid Aspergillus minimal medium (AMM), as described above, solidified with 1.8% (w/v) agar. The pH was adjusted with NaOH, and the medium was supplemented with the respective siderophore. The agar plates were point-inoculated with 10^4 spores per dot of ∆sidA∆ftrA [10] and incubated at 37 °C for 48 h.

R. oryzae = system: R. oryzae; set-up: method as in PMID 23818006; details: cited from earlier work
Fusarium solani = system: Fusarium solani; set-up: method as in PMID 23818006; details: cited from earlier work
[9] = infected rat 1 (injected with [68Ga]Ga-DFO-B and [67Ga]Ga-DFO-E)
[10] = infected rat 2 (injected with [67Ga]Ga-DFO-B and [68Ga]Ga-DFO-E)

For `CC(=O)N[C@H]1CCCN2[O][Ga]3[O]N(CCC[C@H](NC(C)=O)C(=O)OCC/C(C)=C/C(=O)N(CCC[C@H](NC(C)=O)C(=O)OCC/C(C)=C/C2=O)[O]3)C(=O)/C=C(\C)CCOC1=O` [[^68Ga]Ga-TAFC], the in vitro uptake (Aspergillus flavus) is given as “no significant uptake”, the in vitro uptake (Mycobacterium smegmatis) is given as “no significant uptake” and the in vitro uptake (Aspergillus terreus) is given as “no significant uptake”. The in vitro uptake (Staphylococcus aureus) was “no significant uptake”, the in vitro uptake (Pseudomonas aeruginosa) was “no significant uptake” and the in vitro uptake (Klebsiella pneumoniae) was “no significant uptake”. The in vitro uptake (A. fumigatus) was “uptake”, the in vitro uptake (Rhizopus arrhizus) was “uptake” and the in vitro uptake (Candida albicans) was “no significant uptake”.

With `CC(=O)N([O-])CCCCCNC(=O)CCC(=O)N([O-])CCCCCNC(=O)CCC(=O)N([O-])CCCCCN.[68Ga+3]` [[^68Ga]Ga-DFO-B] the “uptake efficacy compared to [68Ga]Ga-DFO-E” value ([1]; pH 5, iron-limited culture) was “approximately 20%”, the “uptake efficacy compared to [68Ga]Ga-DFO-E” value ([1]; pH 7, iron-limited culture) was “about 50%” and the “uptake efficacy compared to [68Ga]Ga-DFO-E” value ([1]; pH 9, iron-limited culture) was roughly 80%. For the same molecule, the renal excretion [2] was “rapid renal excretion”, the “retention in the blood and other organs” value [2] was “minimal retention” and the protein binding [3] was “low protein binding”. The in vitro uptake (Staphylococcus aureus) was “uptake was found”, the in vitro uptake (Streptococcus agalactiae) was “uptake was found” and the in vitro uptake (Pseudomonas aeruginosa) was “uptake was found”. For the same molecule, the “stability in human serum and PBS” value [4] was “high stability”, the in vitro uptake (Klebsiella pneumoniae) was “lack significant uptake” and the “ratio of activity in lung vs. blood” value [5, 9] was “about 17”. The “ratio of activity in lung vs. blood” value [5, 10] was roughly 8, the “radioactivity accumulation in non-infected organs (blood, spleen, pancreas, liver, heart and muscle)” value [5] was “low radioactivity accumulation” and the route of excretion [5] was “primary excretion via kidneys”. The in vitro uptake (A. fumigatus) was “uptake was found”, the “elimination of unbound tracer” value ([6]; PET/CT 45 min p.i.) was “rapidly eliminated via the renal system” and the “PET/CT imaging of the infected area in the lungs” value ([6]; static PET/CT 45 min p.i.) was “clear depiction of the infected area in the lungs”. The in vitro uptake (Escherichia coli) was “lack significant uptake”, the “accumulation in the lungs” value [7] was “negligible accumulation” and the “ratio of 68Ga activity in lung vs. blood” value [7] was 0.84.

For `CC(=O)N([O-])CCCCCNC(=O)CCC(=O)N([O-])CCCCCNC(=O)CCC(=O)N([O-])CCCCCN.[Fe+3]` [Fe-DFO-B], the growth promotion activity ([8]; pH 5 (acidic), listed as Fe-DFO-B^ac) was “rescued the growth promotion”, the growth promotion activity ([8]; pH 7 (neutral)) was “promoted growth” and the growth promotion activity ([8]; pH 9 (alkaline)) was “promoted growth”.

In the case of `CC(=O)N([O-])CCCCCNC(=O)CCC(=O)N([O-])CCCCCNC(=O)CCC(=O)N([O-])CCCCCN.[67Ga+3]` [[^67Ga]Ga-DFO-B], the “radioactivity accumulation in non-infected organs (blood, spleen, pancreas, liver, heart and muscle)” value [5] is reported as “low radioactivity accumulation” and the route of excretion [5] is reported as “primary excretion via kidneys”.

For `O=C1CCC(=O)N([O-])CCCCCNC(=O)CCC(=O)N([O-])CCCCCNC(=O)CCC(=O)N([O-])CCCCCN1.[68Ga+3]` [[^68Ga]Ga-DFO-E], the in vitro uptake (Aspergillus flavus) is listed as “considerable uptake”, the in vitro uptake (Aspergillus terreus) is listed as “considerable uptake” and the in vitro uptake (Staphylococcus aureus) is listed as “considerable uptake”. The in vitro uptake (R. oryzae) was “considerable uptake”, the “ratio of activity in lung vs. blood” value [5, 9] was “about 17” and the “ratio of activity in lung vs. blood” value [5, 10] was roughly 8. The “radioactivity accumulation in non-infected organs (blood, spleen, pancreas, liver, heart and muscle)” value [5] was “low radioactivity accumulation”, the route of excretion [5] was “primary excretion via kidneys” and the “uptake in the infected lungs as compared with radiolabeled DFO-B in the same rat” value [5] was “only slightly higher uptake”. The in vitro uptake (A. fumigatus) was “highest uptake”, the in vitro uptake (Fusarium solani) was “considerable uptake” and the “accumulation in the lungs” value [7] was “negligible accumulation”. The “ratio of 68Ga activity in lung vs. blood” value [7] was 0.79.

With `O=C1CCC(=O)N([O-])CCCCCNC(=O)CCC(=O)N([O-])CCCCCNC(=O)CCC(=O)N([O-])CCCCCN1.[Fe+3]` [Fe-DFO-E] the growth promotion activity ([8]; pH 5 (acidic)) was “promoted the growth”, the growth promotion activity ([8]; pH 7 (neutral)) was “promoted the growth” and the growth promotion activity ([8]; pH 9 (alkaline)) was “promoted the growth”.

In the case of `CC(=O)N([O-])CCCCCNC(=O)CCC(=O)N([O-])CCCCCNC(=O)CCC(=O)N([O-])CCCCCNC(=O)CCC(=O)O.[68Ga+3]` [[^68Ga]Ga-DFO-B^suc], the “uptake efficacy (in words)” value ([1]; pH 9, 45 min at 37 °C) is reported as “highly decreased uptake efficacy”.

For `CC(=O)N(O)CCCCCNC(=O)CCC(=O)N(O)CCCCCNC(=O)CCC(=O)N(O)CCCCCN` [DFO-B, desferrioxamine B], the “in vitro uptake compared to the TAFC and DFO-E metal complexes” value (A. fumigatus) is listed as “significantly lower in vitro uptake”.

With `O=C1CCC(=O)N([O-])CCCCCNC(=O)CCC(=O)N([O-])CCCCCNC(=O)CCC(=O)N([O-])CCCCCN1.[67Ga+3]` [[^67Ga]Ga-DFO-E] the “radioactivity accumulation in non-infected organs (blood, spleen, pancreas, liver, heart and muscle)” value [5] was “low radioactivity accumulation”, the route of excretion [5] was “primary excretion via kidneys” and the “uptake in the infected lungs as compared with radiolabeled DFO-B in the same rat” value [5] was “only slightly higher uptake”.

For `CC(=O)N([O-])CCCCCNC(=O)CCC(=O)N([O-])CCCCCNC(=O)CCC(=O)N([O-])CCCCCNC(=O)CCC(=O)O.[Fe+3]` [Fe-DFO-B^suc], the growth promotion activity ([8]; pH 9 (alkaline)) was “lowest growth promotion activity”.
